According to PubChem BioAssay AID1963422 (Molecular Pharmacology Branch, DTP, NCI, 2024):

System: 463943-066-T-J2-PDC complex spheroid growth
Assay: Anticancer human tumor 463943-066-T-J2-PDC patient-derived colon adenocarcinoma cell line growth inhibition [Asc]
Conditions: for IC50: curve of first compound; for viability, T/C: stronger effect = lower value; active = viability on the fitted dose curve at most 10% of control; inactive = the rest
In short: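 Tumor cells were grown as multicellular spheroids with stromal HUVEC and mesenchymal stem cells and treated singly or in combination. Concentrations fell in half-log steps from the clinical Cmax, or from 10 microM where none was known.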

[1] = second compound 0.00949 µM, first compound 0.0316 µM
[2] = second compound 0.00949 µM, first compound 0.1 µM
[3] = second compound 0.00949 µM, first compound 0.316 µM
[4] = second compound 0.00949 µM, first compound 1 µM
[5] = second compound 0.00949 µM, first compound 3.16 µM
[6] = second compound 0.00949 µM, first compound 10 µM
[7] = second compound 0.03 µM, first compound 0.0316 µM
[8] = second compound 0.03 µM, first compound 0.1 µM
[9] = second compound 0.03 µM, first compound 0.316 µM
[10] = second compound 0.03 µM, first compound 1 µM
[11] = second compound 0.03 µM, first compound 3.16 µM
[12] = second compound 0.03 µM, first compound 10 µM
[13] = second compound 0.0949 µM, first compound 0.0316 µM
[14] = second compound 0.0949 µM, first compound 0.1 µM
[15] = second compound 0.0949 µM, first compound 0.316 µM
[16] = second compound 0.0949 µM, first compound 1 µM
[17] = second compound 0.0949 µM, first compound 3.16 µM
[18] = second compound 0.0949 µM, first compound 10 µM
[19] = second compound 0.3 µM, first compound 0.0316 µM
[20] = second compound 0.3 µM, first compound 0.1 µM
[21] = second compound 0.3 µM, first compound 0.316 µM
[22] = second compound 0.3 µM, first compound 1 µM
[23] = second compound 0.3 µM, first compound 3.16 µM
[24] = second compound 0.3 µM, first compound 10 µM
[25] = second compound 0.949 µM, first compound 0.0316 µM
[26] = second compound 0.949 µM, first compound 0.1 µM
[27] = second compound 0.949 µM, first compound 0.316 µM
[28] = second compound 0.949 µM, first compound 1 µM
[29] = second compound 0.949 µM, first compound 3.16 µM
[30] = second compound 0.949 µM, first compound 10 µM
[31] = second compound 3 µM, first compound 0.0316 µM
[32] = second compound 3 µM, first compound 0.1 µM
[33] = second compound 3 µM, first compound 0.316 µM
[34] = second compound 3 µM, first compound 1 µM
[35] = second compound 3 µM, first compound 3.16 µM
[36] = second compound 3 µM, first compound 10 µM
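Note: compound exposure lasted 7 days.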
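Throughout, for viability, T/C: 100% = DMSO vehicle control wells.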

C#Cc1c(F)ccc2cc(O)cc(-c3ncc4c(N5CC6CCC(C5)N6)nc(OCC56CCCN5CC(F)C6)nc4c3F)c12 (stereo not drawn) + CCN1C(C(=O)NC23CCC(C(=O)O)(CC2)CC3)C(c2cccc(Cl)c2F)C2(C(=O)Nc3cc(Cl)ccc32)C12CCCCC2
inactive: viability, T/C [1] 94.4% | viability, T/C [2] 99.3% | viability, T/C [3] 94.3% | viability, T/C [4] 101% | viability, T/C [5] 108% | viability, T/C [6] 88.3% | viability, T/C [7] 102% | viability, T/C [8] 90.5% | viability, T/C [9] 94.1% | viability, T/C [10] 101% | viability, T/C [11] 103% | viability, T/C [12] 82.5% | viability, T/C [13] 91.5% | viability, T/C [14] 88.8% | viability, T/C [15] 94.2% | viability, T/C [16] 93% | viability, T/C [17] 91.7% | viability, T/C [18] 94.1% | viability, T/C [19] 88.4% | viability, T/C [20] 81.6% | viability, T/C [21] 87% | viability, T/C [22] 83% | viability, T/C [23] 83.1% | viability, T/C [24] 85.4% | viability, T/C [25] 74% | viability, T/C [26] 73% | viability, T/C [27] 78.8% | viability, T/C [28] 77.9% | viability, T/C [29] 75.3% | viability, T/C [30] 71.2% | viability, T/C [31] 70% | viability, T/C [32] 71.8% | viability, T/C [33] 70.5% | viability, T/C [34] 73.3% | viability, T/C [35] 72.1% | viability, T/C [36] 67.6%
> 10 µM: IC50 (second compound 0.00949 µM) | IC50 (second compound 0.03 µM) | IC50 (second compound 0.0949 µM) | IC50 (second compound 0.3 µM) | IC50 (second compound 0.949 µM) | IC50 (second compound 3 µM)

C=C(F)C(=O)N1CCN(c2nc(OCC3CCCN3C)nc3c2CCN(c2cccc4cccc(Cl)c24)C3)CC1CC#N (stereo not drawn) + CCN1C(C(=O)NC23CCC(C(=O)O)(CC2)CC3)C(c2cccc(Cl)c2F)C2(C(=O)Nc3cc(Cl)ccc32)C12CCCCC2
5.8 µM: IC50 (second compound 3 µM)
inactive: viability, T/C [1] 97.4% | viability, T/C [2] 92.9% | viability, T/C [3] 103% | viability, T/C [4] 104% | viability, T/C [5] 91.9% | viability, T/C [6] 17.2% | viability, T/C [7] 93.4% | viability, T/C [8] 93.9% | viability, T/C [9] 93.1% | viability, T/C [10] 101% | viability, T/C [11] 97.3% | viability, T/C [12] 20.3% | viability, T/C [13] 91.7% | viability, T/C [14] 87.3% | viability, T/C [15] 88.3% | viability, T/C [16] 97.8% | viability, T/C [17] 87.3% | viability, T/C [18] 23.9% | viability, T/C [19] 82% | viability, T/C [20] 85.4% | viability, T/C [21] 83.6% | viability, T/C [22] 90.5% | viability, T/C [23] 79.1% | viability, T/C [24] 26.3% | viability, T/C [25] 71.9% | viability, T/C [26] 81% | viability, T/C [27] 76% | viability, T/C [28] 83.6% | viability, T/C [29] 78.1% | viability, T/C [30] 30.8% | viability, T/C [31] 70.8% | viability, T/C [32] 71.5% | viability, T/C [33] 74% | viability, T/C [34] 78.9% | viability, T/C [35] 77.5% | viability, T/C [36] 28%
6.24 µM: IC50 (second compound 0.0949 µM)
6.01 µM: IC50 (second compound 0.3 µM)
6.36 µM: IC50 (second compound 0.03 µM)
6.26 µM: IC50 (second compound 0.949 µM)
6.05 µM: IC50 (second compound 0.00949 µM)

C=CC(=O)N1CCN(c2nc(=O)n(-c3c(C)ccnc3C(C)C)c3nc(-c4c(O)cccc4F)c(F)cc23)C(C)C1 (stereo not drawn) + CCN1C(C(=O)NC23CCC(C(=O)O)(CC2)CC3)C(c2cccc(Cl)c2F)C2(C(=O)Nc3cc(Cl)ccc32)C12CCCCC2
inactive: viability, T/C [1] 94.4% | viability, T/C [2] 96.5% | viability, T/C [3] 93% | viability, T/C [4] 107% | viability, T/C [5] 104% | viability, T/C [6] 98% | viability, T/C [7] 108% | viability, T/C [8] 96.8% | viability, T/C [9] 99.9% | viability, T/C [10] 103% | viability, T/C [11] 104% | viability, T/C [12] 88.4% | viability, T/C [13] 92.4% | viability, T/C [14] 88.6% | viability, T/C [15] 91% | viability, T/C [16] 93.2% | viability, T/C [17] 97.3% | viability, T/C [18] 86.3% | viability, T/C [19] 84.4% | viability, T/C [20] 84.8% | viability, T/C [21] 86.2% | viability, T/C [22] 85.5% | viability, T/C [23] 86.7% | viability, T/C [24] 80.3% | viability, T/C [25] 76.5% | viability, T/C [26] 77% | viability, T/C [27] 74% | viability, T/C [28] 77% | viability, T/C [29] 78.2% | viability, T/C [30] 77% | viability, T/C [31] 71.7% | viability, T/C [32] 73.3% | viability, T/C [33] 75.9% | viability, T/C [34] 77.6% | viability, T/C [35] 72.5% | viability, T/C [36] 72.5%
> 10 µM: IC50 (second compound 0.00949 µM) | IC50 (second compound 0.03 µM) | IC50 (second compound 0.0949 µM) | IC50 (second compound 0.3 µM) | IC50 (second compound 0.949 µM) | IC50 (second compound 3 µM)

CNC(C)C(=O)NC1CN(S(=O)(=O)c2cccc(S(=O)(=O)N3CCC4CCC(C(=O)NC(c5ccccc5)c5ccccc5)N4C(=O)C(NC(=O)C(C)NC)C3)c2)CCC2CCC(C(=O)NC(c3ccccc3)c3ccccc3)N2C1=O (stereo not drawn) + CCN1C(C(=O)NC23CCC(C(=O)O)(CC2)CC3)C(c2cccc(Cl)c2F)C2(C(=O)Nc3cc(Cl)ccc32)C12CCCCC2
inactive: viability, T/C (second compound 0.00949 µM, first compound 0.00316 µM) 96.9% | viability, T/C (second compound 0.00949 µM, first compound 0.01 µM) 93.3% | viability, T/C [1] 99.3% | viability, T/C [2] 93.7% | viability, T/C [3] 95.9% | viability, T/C [4] 86.8% | viability, T/C (second compound 0.03 µM, first compound 0.00316 µM) 103% | viability, T/C (second compound 0.03 µM, first compound 0.01 µM) 96.6% | viability, T/C [7] 89.4% | viability, T/C [8] 93.2% | viability, T/C [9] 95% | viability, T/C [10] 85% | viability, T/C (second compound 0.0949 µM, first compound 0.00316 µM) 94.2% | viability, T/C (second compound 0.0949 µM, first compound 0.01 µM) 93.2% | viability, T/C [13] 81.9% | viability, T/C [14] 89.3% | viability, T/C [15] 91.8% | viability, T/C [16] 86.1% | viability, T/C (second compound 0.3 µM, first compound 0.00316 µM) 83.8% | viability, T/C (second compound 0.3 µM, first compound 0.01 µM) 81.1% | viability, T/C [19] 82.1% | viability, T/C [20] 81.9% | viability, T/C [21] 84.6% | viability, T/C [22] 81% | viability, T/C (second compound 0.949 µM, first compound 0.00316 µM) 73.1% | viability, T/C (second compound 0.949 µM, first compound 0.01 µM) 85.1% | viability, T/C [25] 76.1% | viability, T/C [26] 75.8% | viability, T/C [27] 76.8% | viability, T/C [28] 71.5% | viability, T/C (second compound 3 µM, first compound 0.00316 µM) 71.1% | viability, T/C (second compound 3 µM, first compound 0.01 µM) 73.2% | viability, T/C [31] 74.7% | viability, T/C [32] 69.3% | viability, T/C [33] 75.5% | viability, T/C [34] 69.4%
> 1 µM: IC50 (second compound 0.00949 µM) | IC50 (second compound 0.03 µM) | IC50 (second compound 0.0949 µM) | IC50 (second compound 0.3 µM) | IC50 (second compound 0.949 µM) | IC50 (second compound 3 µM)
